# Key:
# acetylated tubulin = test: Western blot of acetylated tubulin in MM1S cells; assay type: cell-based, human; conditions: 100 nM
# Excerpt: (§1) FIGS. 12A, 12B, and 12C are a series of western blots showing that degrader 12d selectively promotes HDAC6 degradation in MM1S cells.
# (§2) To further examine the selectivity of the new generation of HDAC6 degraders, compound 12d was compared to SAHA, Next-A, degrader 1 and pan-inhibitor 2 for change of acetylated a-tubulin and acetylated histone H3.
# (§3) When the cells reached 90% confluence, they were harvested and plated 1×10^6 cells per well in 6-well plate. After overnight seeding, the cells were treated with a solution of compounds or vehicle in culture medium. The culture medium was removed after treatment and then washed twice with cold PBS. To obtain whole cell lysate, all cells were treated with RIPA lysis buffer (25 mM Tris, pH 7-8, 150 mM NaCl, 0.1% SDS, 0.5% sodium deoxycholate, 1% Triton X-100, protease inhibitor cocktail (Roche, 1 tablet per 10 mL) and 1 mM PMSF) on ice for 10 minutes. Supernatant was collected after spinning down at 16,000 g at 4° C. for 15 minutes. Protein concentration was measured by using the Pierce BCA protein assay (Thermo Fisher Scientific). About 10-40 μg of total protein was mixed with 4× Laemmli Loading Dye (250 mM Tris, pH 6.8, 40% glycerol, 5% SDS, 0.005% bromophenol blue, 4% BME) and heated at 95-100° C. for 5 minutes. The heated sample was then subjected to 7.5-12% SDS-PAGE and transferred to PVDF membrane (Bio-Rad,). The membrane was blocked in 5% non-fat milk (Bio-rad) in TBS-T washing buffer (137 mM NaCl, 20 mM Tris, 0.1% Tween) and then incubated with primary antibodies at 4° C. overnight. […] The Immunoblot was generated by ChemiDoc MP Imaging Systems (Bio-Rad) and analyzed by Image J software (only available for download online at https://imagej.net/Downloads). […]
# The activity of all eleven “n+4” VHL-based potential degraders to suppress HDAC6 expression was tested at 100 nM and compared to CRBN degrader 2 in MM1S cells. The resulting cells were analyzed for HDAC6 expression by in-cell ELISA (FIG. 15). […]
# acetylated histone H3 = test: Western blot of acetylated histone H3 in MM1S cells; assay type: cell-based, human
# Excerpt: as §1, §2
# as §3, with “Scientific).” for “Scientific). About 10-40 μg of total protein was mixed with 4× Laemmli Loading Dye (250 mM Tris, pH 6.8, 40% glycerol, 5% SDS, 0.005% bromophenol blue, 4% BME) and heated at 95-100° C. for 5 minutes. The heated sample was then subjected to 7.5-12% SDS-PAGE and transferred to PVDF membrane (Bio-Rad,). The membrane was blocked in 5% non-fat milk (Bio-rad) in TBS-T washing buffer (137 mM NaCl, 20 mM Tris, 0.1% Tween) and then incubated with primary antibodies at 4° C. overnight.”
# HDAC6 = target: T1, HDAC6 (Homo sapiens, UniProt Q9UBN7); test: In-cell ELISA of HDAC6 protein level in MM1S cells; assay type: cell-based; conditions: MM1.S, 6 h, 100% minus mean (± SD) relative HDAC6 expression; for inhibition at 0.01 µM: 10 nM, n=3, read-out: Degradation (%) 10 nM; for inhibition at 0.1 µM: 100 nM, n=3, read-out: Degradation (%) 100 nM
# T1 construct: endogenous in cells; host or cells: MM1S (ATCC CRL-2974)
# T1 sequence (Q9UBN7 1-1215): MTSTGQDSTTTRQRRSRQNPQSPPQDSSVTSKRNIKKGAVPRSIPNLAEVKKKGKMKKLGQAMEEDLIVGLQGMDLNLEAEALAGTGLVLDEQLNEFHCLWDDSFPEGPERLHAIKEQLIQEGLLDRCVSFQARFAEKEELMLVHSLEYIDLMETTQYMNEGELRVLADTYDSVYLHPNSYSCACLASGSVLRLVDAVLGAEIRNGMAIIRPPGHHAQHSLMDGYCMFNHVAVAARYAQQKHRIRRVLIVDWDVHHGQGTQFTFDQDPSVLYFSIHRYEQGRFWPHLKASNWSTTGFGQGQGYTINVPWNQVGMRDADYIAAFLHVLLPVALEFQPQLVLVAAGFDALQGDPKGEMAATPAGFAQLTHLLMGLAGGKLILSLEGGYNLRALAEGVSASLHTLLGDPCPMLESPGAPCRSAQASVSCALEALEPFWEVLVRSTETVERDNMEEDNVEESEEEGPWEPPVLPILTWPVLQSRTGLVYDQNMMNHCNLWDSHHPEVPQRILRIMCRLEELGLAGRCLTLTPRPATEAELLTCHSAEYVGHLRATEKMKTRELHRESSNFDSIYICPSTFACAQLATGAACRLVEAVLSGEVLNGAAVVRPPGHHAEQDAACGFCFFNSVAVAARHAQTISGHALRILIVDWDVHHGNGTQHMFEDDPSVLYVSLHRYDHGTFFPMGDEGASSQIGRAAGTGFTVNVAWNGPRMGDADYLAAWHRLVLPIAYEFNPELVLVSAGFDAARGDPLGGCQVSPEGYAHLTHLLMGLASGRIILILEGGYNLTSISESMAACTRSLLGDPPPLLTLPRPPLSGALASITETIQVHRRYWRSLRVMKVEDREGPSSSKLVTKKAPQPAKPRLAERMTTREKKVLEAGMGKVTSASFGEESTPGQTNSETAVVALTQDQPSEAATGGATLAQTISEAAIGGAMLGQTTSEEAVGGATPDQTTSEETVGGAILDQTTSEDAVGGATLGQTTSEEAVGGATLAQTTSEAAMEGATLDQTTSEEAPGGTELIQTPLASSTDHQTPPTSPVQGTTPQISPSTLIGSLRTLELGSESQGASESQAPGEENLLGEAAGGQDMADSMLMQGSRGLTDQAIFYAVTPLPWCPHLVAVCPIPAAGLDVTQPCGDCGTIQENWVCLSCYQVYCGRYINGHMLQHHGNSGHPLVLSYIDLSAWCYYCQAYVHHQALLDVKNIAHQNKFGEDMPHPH
# Description: FIG. 9 is a histogram depicting the results of screening of compounds for HDAC6 degradation activity by in-cell ELISA. MM1S cells were treated with compounds at 100 nM (blue bars) or 10 nM (red bars) for 6 h. Data was normalized to vehicle (DMSO)-treated group and the bar graph represents as mean of relative HDAC6 protein level (n=3) with ±SD as error bar. Statistical significance was analyzed by one-way ANOVA. Not significant (ns) P>0.05, *P≤0.05, **P≤0.01, ***P≤0.001, ****P≤0.0001.
# FIG. 11 is a graph depicting dose response of selected degrader candidates. MM1S cells were treated for 6 h and analyzed by in-cell ELISA. Data was normalized to vehicle (DMSO)-treated group and dot plot represented as mean relative expression (n=3) with ±SD as error bar. Nonlinear fitting of inhibitor concentration vs. response (three parameters) was generated by GraphPad Prism with R2 from 0.97 to 0.99.
# FIG. 15 is a histogram depicting relative HDAC6 expression as a function of linker length for compounds 3a through 3k as described in the Examples section, Part 2. Human MM1S cells were treated with 100 nM degraders for 6 hours and analyzed by in-cell ELISA assay.
# FIG. 17 is a dose-response curve for degraders 3j (n=1), 3k (n=12) and 2, at concentrations from 1 nM to 300 nM for 4 h in MM1S. See the Examples, Part 2.
# To screen the new series of degraders, an in-cell ELISA assay was developed and validated. The compounds were treated at 100 nM and 10 nM in MM1S cells for 6 h. Resulting cells were then fixed and analyzed by in-cell ELISA. […] Degraders including 1 at 100 nM degraded 73.5% to 85.0% of HDAC6 with minor difference. At 10 nM concentration of compounds, obvious structure-activity-relationship (SAR) was observed. […] For example, 12d, 12h, 12i, 12o and 12p all achieved about 70% degradation. Among the C4-linked series, 12d with medium length linker (5+1) achieved most degradation in sub-series 12a-e (m=1). […] Among C5-linked series, the potency of sub-series 12l-p (m=1) increased with the linker length. […] It appeared that both the distance and linking positions contributed to the degradation efficiency. The rigid triazole ring in the middle of the linker likely modulated the plasticity of degrader-bridged ternary complex.
# The amount of cellular HDAC6 was measured in response to concentrations of compounds from 0.1 nM to 1 μM. […] The new degraders had single-digit nanomolar DC50, which was about 3 to 5 fold of improvement from 9.12 nM of degrader 1. […] As discussed above, most PROTACs were designed to avoid degrading other proteins except the targeted POIs. However, in these studies, it was hypothesized that HDAC6 degraders with IKZF degradation will have enhanced anti-proliferation effect MM1S cells.
# MM1S cells were harvested and plated with 5×10^5 cells in 100 μL media per well 96-wells plate. After overnight seeding, 25 μL media containing 5× dosing concentration of the compounds or vehicle was added to each well. After 6-hour treatment at 37° C. in a humidified 5% CO2 atmosphere, cells were fixed by adding 125 μL 8% formaldehyde in TBS buffer (137 mM NaCl, 25 mM Tris, 2.7 mM potassium chloride, pH 7.6) and incubated at room temperature (RT) for 15 minutes. Removal of fixing solution was followed by once rinse and twice washes with TBS-T washing buffer (137 mM NaCl, 20 mM Tris, 0.1% Tween, pH 7.6). Cells were then permeabilized by adding 100 μL 0.1% Triton-X in TBS and incubated at RT for 15 minutes. Removal of permeabilizing solution was followed by once rinse and once wash with TBS-T. Cellular endogenous peroxidases were quenched by adding 100 μL 1% H2O2 in TBS and incubation at RT for 20 minutes. Removal of quenching solution was followed by once rinse and once wash with TBS-T. Non-specific binding sites were blocked by adding […] 5% BSA in TBS-T (with 0.02% NaN3) and incubation at 4° C. overnight. […]
inhibition at 0.01 µM (HDAC6),inhibition at 0.1 µM (HDAC6),SMILES,change of acetylated tubulin (acetylated tubulin),change of acetylated histone H3 (acetylated histone H3)
–,–,"O=C(CCCCCCC(=O)Nc1ccccc1)NO [SAHA, Suberoylanilide hydroxamic acid, reference compound]",didn't,strong acetylated histone H3 signal
45.6 ± 1.6%,77.3 ± 1.5%,"CCCCN(Cc1ccc(C(=O)NO)cc1)C(=O)Nc1ccc(OCCCn2cc(CCCNc3cccc4c3C(=O)N(C3CCC(=O)NC3=O)C4=O)nn2)cc1 (centres unmarked) [Compound 12j, 4-((1-butyl-3-(4-(3-(4-(3-((2-(2,6-dioxopiperidin-3-yl)-1,3-dioxoisoindolin-4-yl)amino)propyl)-1H-1,2,3-triazol-1-yl)propoxy)phenyl)ureido)methyl)-N-hydroxybenzamide]",–,–
47.2 ± 4.8%,80.4 ± 0.3%,"CCCCN(Cc1ccc(C(=O)NO)cc1)C(=O)Nc1ccc(OCCn2cc(CCCNc3ccc4c(c3)C(=O)N(C3CCC(=O)NC3=O)C4=O)nn2)cc1 (centres unmarked) [Compound 12q, 4-((1-butyl-3-(4-(2-(4-(3-((2-(2,6-dioxopiperidin-3-yl)-1,3-dioxoisoindolin-5-yl)amino)propyl)-1H-1,2,3-triazol-1-yl)ethoxy)phenyl)ureido)methyl)-N-hydroxybenzamide]",–,–
60.9 ± 0.4%,81.9 ± 0.4%,"CCCCN(Cc1ccc(C(=O)NO)cc1)C(=O)Nc1ccc(OCCCn2cc(CCCNc3ccc4c(c3)C(=O)N(C3CCC(=O)NC3=O)C4=O)nn2)cc1 (centres unmarked) [Compound 12r, 4-((1-butyl-3-(4-(3-(4-(3-((2-(2,6-dioxopiperidin-3-yl)-1,3-dioxoisoindolin-5-yl)amino)propyl)-1H-1,2,3-triazol-1-yl)propoxy)phenyl)ureido)methyl)-N-hydroxybenzamide]",–,–
~70%,84.7 ± 1%,"CCCCN(Cc1ccc(C(=O)NO)cc1)C(=O)Nc1ccc(OCCCCCn2cc(CNc3ccc4c(c3)C(=O)N(C3CCC(=O)NC3=O)C4=O)nn2)cc1 (centres unmarked) [Compound 12o, 4-((1-butyl-3-(4-((5-(4-(((2-(2,6-dioxopiperidin-3-yl)-1,3-dioxoisoindolin-5-yl)amino)methyl)-1H-1,2,3-triazol-1-yl)pentyl)oxy)phenyl)ureido)methyl)-N-hydroxybenzamide]",–,–

SMILES,inhibition at 0.01 µM (HDAC6),inhibition at 0.1 µM (HDAC6),change of acetylated tubulin (acetylated tubulin),change of acetylated histone H3 (acetylated histone H3)
"CCCCN(Cc1ccc(C(=O)NO)cc1)C(=O)Nc1ccc(OCCCCn2cc(CCNc3cccc4c3C(=O)N(C3CCC(=O)NC3=O)C4=O)nn2)cc1 (centres unmarked) [Compound 12h, 4-((1-butyl-3-(4-(4-(4-(2-((2-(2,6-dioxopiperidin-3-yl)-1,3-dioxoisoindolin-4-yl)amino)ethyl)-1H-1,2,3-triazol-1-yl)butoxy)phenyl)ureido)methyl)-N-hydroxybenzamide]",~70%,79.2 ± 0.9%,–,–
"CCCCN(Cc1ccc(C(=O)NO)cc1)C(=O)Nc1ccc(OCCCCn2cc(CNc3cccc4c3C(=O)N(C3CCC(=O)NC3=O)C4=O)nn2)cc1 (centres unmarked) [Compound 12c, 4-((1-butyl-3-(4-(4-(4-(((2-(2,6-dioxopiperidin-3-yl)-1,3-dioxoisoindolin-4-yl)amino)methyl)-1H-1,2,3-triazol-1-yl)butoxy)phenyl)ureido)methyl)-N-hydroxybenzamide]",64.3 ± 3.2%,85 ± 1.2%,–,–

# Source: patent publication US11059815B2, “Synthesis of small molecule histone deacetylase 6 degraders, compounds formed thereby, and pharmaceutical compositions containing them” (Wisconsin Alumni Research Foundation, priority 2018, dated 2021)
